Values after ≈ are worked out from the molar mass of the structure shown. Bounds are passed on as bounds.

For this data set the following is noted: buffer; pH 7.4; 200.0 µM.
Consider `O=[N+]([O-])c1c(NCCO)cc(N2CCC3(CC2)OCCO3)c2nonc12`, for which the kinetic solubility (in general, the concentration staying in solution when a stock, usually in DMSO, is diluted into the medium) was over 54.8 µg/mL.

For `CC(=O)N1CCN(CC(=O)Nc2ccc(C)c(F)c2)CC1.Cl`, the kinetic solubility was 46.8 µg/mL.

Take `CCc1ccc(NC(=S)N2CCN(c3cccc(OC)c3)CC2)cc1`: the kinetic solubility worked out at 0.3 µg/mL (≈ 0.844 µM).

On to `Nc1ccccc1SC/C=C/CSc1ccccc1N`, for which the kinetic solubility was found to be 12.8 µg/mL (≈ 42.3 µM). Against the preceding compound, the solubility kinetic is about 43-fold higher.

Regarding `COC(=O)c1cc(Sc2cccc(Cl)c2Cl)ccn1`, the kinetic solubility was determined as 26.3 µg/mL (≈ 83.7 µM). Against the preceding compound, the solubility kinetic is about 2.1-fold higher.

`CN(C)CCCNC(=O)c1cc(Br)ccc1O` registered a solubility (kinetic) of 45.2 µg/mL (≈ 150 µM).

Take `Cc1ccc(Cn2ccsc2=NC(=O)COC(=O)C(C)C)cc1`: the kinetic solubility came to 45.3 µg/mL (≈ 136 µM).

Take `Cc1ccc(-c2nc(NCCN(C)C)c3ccccc3n2)cc1`: the solubility (kinetic) is over 46 µg/mL.

Take `COC(=O)/C(C#N)=C/N(C)C`: the kinetic solubility is over 23.1 µg/mL.

Turning to `CC(NC(=O)COC(=O)c1ccccc1O)C1CC2CCC1C2` (configuration not stated), the solubility (kinetic) turned out to be 14.1 µg/mL (≈ 44.4 µM).

`COc1ccc(S(=O)(=O)N2CCN(c3cnccn3)CC2)cc1OC` yielded a kinetic solubility of over 54.7 µg/mL.

In turn, `O=C(NC1CCCc2ccccc21)c1ccccc1Cl` (configuration not stated) returned a solubility (kinetic) of 39.6 µg/mL (≈ 139 µM).

`Cc1cc2nc(NCCCO)n(CC(=O)c3cc(C(C)(C)C)c(O)c(C(C)(C)C)c3)c2cc1C` displayed a solubility (kinetic) of 0.5 µg/mL (≈ 1.07 µM).

`NC(=NC(=O)c1ccc(OCC(F)(F)F)nc1)c1ccc(Cl)cc1` had a solubility (kinetic) of 2 µg/mL (≈ 5.59 µM).

`Cc1ccc(NC(=O)Nc2cccnc2)cc1` had a solubility (kinetic) of over 34.1 µg/mL.

`COC(=O)Cc1ccc2oc(-c3cccnc3)nc2c1` registered a kinetic solubility of 37 µg/mL (≈ 138 µM).

As to `N#Cc1ccc(-c2csc(-c3ccno3)n2)cc1`, the kinetic solubility is 1.2 µg/mL (≈ 4.74 µM).

Compound `Cc1ccc2[nH]c3ccccc3c(=O)c2c1` had a solubility (kinetic) of 5.8 µg/mL (≈ 27.7 µM).

Regarding `O=C1OC(NCc2cccnc2)(c2ccc(Cl)cc2)c2ccccc21` (configuration not stated), the kinetic solubility is over 52.6 µg/mL.

Regarding `COc1ccc(C)cc1NC(=O)c1ccc(OCc2c(C)noc2C)cc1`, the solubility (kinetic) came out at 0.9 µg/mL (≈ 2.46 µM).

In turn, `CN(CC(=O)NC(=O)Nc1ccccc1F)Cc1ccccc1` registered a kinetic solubility of 4.7 µg/mL (≈ 14.9 µM).

`Cc1ccc(Cl)cc1NC(=S)N1CCCCCC1` came in with a solubility (kinetic) of 37.8 µg/mL (≈ 134 µM).

The compound `COC(=O)c1[nH]c2cccc(OC)c2c1NC(=O)CCN1CCSCC1` registered a kinetic solubility of 54.6 µg/mL (≈ 145 µM). This solubility kinetic and that of the compound before are within 1.5-fold of each other.

Take `O=C(O)C1CC=CCC1C(=O)NCCCN1CCCC1=O` (configuration not stated): the solubility (kinetic) was over 44.2 µg/mL.

Consider `c1ccc(-c2noc(CC3CCCCC3)n2)nc1`, for which the solubility (kinetic) came out at 32.2 µg/mL (≈ 132 µM).

`CCCC(CCC(=O)Nc1cccc([N+](=O)[O-])c1)C(=O)O` (configuration not stated) returned a kinetic solubility of over 44.1 µg/mL.

With `Cc1ccc(-c2csc(NC(=O)CN3CCOCC3)n2)cc1C`, the solubility (kinetic) came out at 39.2 µg/mL (≈ 118 µM).

For the compound `CCc1nnc(NC(=O)C2CSC3(C)CCC(=O)N23)s1` (configuration not stated), the solubility (kinetic) is over 46.9 µg/mL.

Regarding `CCOc1nc(-c2ccccc2Cl)nc2ccccc12`, the kinetic solubility came to 1.4 µg/mL (≈ 4.92 µM).

Compound `O=C(NC1CCCCC1)C(=O)c1c[nH]c2ccccc12` showed a kinetic solubility of 1.1 µg/mL (≈ 4.07 µM).

`Cc1noc(C)c1S(=O)(=O)N(Cc1ccccc1)C(C)C`: the solubility (kinetic) worked out at 36.5 µg/mL (≈ 118 µM).

As for `CCn1cc(CCC(=O)NC2CCCC2)c2ccccc21`, the solubility (kinetic) worked out at 40.4 µg/mL (≈ 142 µM).

`O=C(O)CCc1ccc(-c2cccs2)n1CCc1ccccc1`: the kinetic solubility is over 48.8 µg/mL.

`COc1ccc(-c2onc(C)c2-c2cscn2)c(O)c1` returned a solubility (kinetic) of over 43.2 µg/mL.

Turning to `O=C(O)c1ccc(Cl)c(S(=O)(=O)NCc2cccnc2)c1`, the kinetic solubility is over 49 µg/mL.

For `CN=C1S/C(=C\c2cccc(Cl)c2Cl)C(=O)N1C`, the kinetic solubility was under 0.3 µg/mL.

Take `O=C(Nc1cccc2c1C(=O)NC2=O)c1ccccc1[N+](=O)[O-]`: the solubility (kinetic) turned out to be 6.9 µg/mL (≈ 22.2 µM).

The compound `Cc1cccc(C)c1NC(=S)N(Cc1cccs1)C1CCCC1` registered a kinetic solubility of 0.6 µg/mL (≈ 1.74 µM). This solubility kinetic lies about 12-fold lower than the previous one.

In the case of `COc1ccc(C(NC(=O)CC(C)C)c2c(O)ccc3ccccc23)cc1` (configuration not stated), the solubility (kinetic) was under 0.8 µg/mL.

The compound `Fc1ccc(SCCc2cccc[nH+]2)cc1.O=P([O-])(O)O` returned a kinetic solubility of 9.7 µg/mL.

`CC1CN(C(=O)COC(=O)Cc2c(Cl)cccc2Cl)CC(C)O1` (configuration not stated) had a kinetic solubility of over 54 µg/mL.

Compound `COc1ccc(OCc2cc(=O)[nH]c3ccccc23)cc1` gave a kinetic solubility of 2.9 µg/mL (≈ 10.3 µM).

Turning to `Cc1ccc(S(=O)(=O)NC(=O)C2CCCCC2)cc1`, the kinetic solubility is over 42.2 µg/mL.

Take `CC(OC(=O)c1ccc2ncsc2c1)C(=O)N1CCCC1` (configuration not stated): the kinetic solubility was determined as 39.4 µg/mL (≈ 129 µM).

On to `N#C/C(=C\c1ccc(N2CCCCC2)o1)C(N)=O`, for which the solubility (kinetic) is over 36.8 µg/mL.

Consider `COc1ccc([C@@H](O)[C@@H](N)c2ccccc2)cc1.Cl`, for which the kinetic solubility is 41.7 µg/mL.

Compound `O=S(=O)(N1CCOCC1)N1CCOCC1` displayed a solubility (kinetic) of over 35.4 µg/mL.

Consider `Cc1ccc(NC(=O)c2oc3ccccc3c2C)nc1`, for which the kinetic solubility came out at 6.4 µg/mL (≈ 24 µM).

As to `COc1ccccc1OCCOCCN1CCCC1`, the solubility (kinetic) came out at 38.2 µg/mL (≈ 144 µM). This solubility kinetic is about 6-fold higher than that of the compound before.

The compound `CCCc1cc(C(=O)OC)c(NC(=O)CCCC(=O)O)s1` yielded a solubility (kinetic) of over 47 µg/mL.

In turn, `CN(C)CCCNc1c2ccccc2nc2ccccc12` returned a solubility (kinetic) of over 41.9 µg/mL.

Compound `O=C(O)CCNC(=S)Nc1cccc(F)c1` had a solubility (kinetic) of over 36.3 µg/mL.

The values above are taken from PubChem BioAssay AID1996.
